Laboratory results taken from patent US6476044B1, “Use of morphine derivatives as medicaments for the treatment of neuropathic problems” (Gruenenthal GmbH, priority 2000, dated 2002).
Counter-ions that a name gives are not always drawn. Like-named read-outs stand apart in the source and are kept apart here.

Tests used:
ORL1 receptor [1] = target: T1, ORL1 receptor (Homo sapiens, UniProt P41146); experiment: Receptor binding assay with 3H-nociceptin/orphanin FQ using membranes of recombinant CHO-ORL1 cells; parameters: expressed in transfected cells; host or cells: recombinant CHO-ORL1 cells (membranes)
Protocol: Furthermore a receptor binding assay with ^3H-nociceptin/ orphanin FQ was carried out with the compounds according to the invention using membranes of recombinant CHO-ORL1 cells. This test system was implemented according to the method proposed by Ardati et al. (Mol. Pharmacol., 51, 1997, pp. 816-824). The concentration of ^3H-N/OFQ in these experiments was 0.5 nM. The binding assays were performed in each case with 20 μg of membrane protein per 200 μl of batch in 50 mM of Hepes, pH 7.4, 10 mM MgCl2 and 1 mM EDTA. The binding to the ORL1 receptor was determined using in each case 1 mg of WGA-SPA beads (Amersham-Pharmacia, Freiburg) by incubating the batch for one hour at room temperature followed by measurement in a Trilux scintillation counter (Wallac, Finland). The affinity is given as the Ki value.

ORL1 receptor [2] = target: T1, ORL1 receptor; experiment: ORL1 reporter gene assay, agonist test (inhibition of cAMP-dependent luciferase formation); assay type: cell-based; parameters: A cDNA coding for the ORL1 receptor was cloned using standard methods from THP-1 cells; expressed in transfected cells; host or cells: CHO-K1/pSE66/K9/pZeoORL17/K21; settings: agonist potency: concentration at semi-maximum inhibition of luciferase formation; CHO-K1 cells expressing human ORL1
From the text: (§1) The morphinan derivatives of the general formula I according to the invention were identified with a reporter gene system as ORL1 receptor agonists or as ORL1 receptor antagonists. This reporter gene system is based on the expression of the human ORL1 receptor in CHO-K1 cells, which carry a cAMP-sensitive luciferase gene (Wnendt et al., Regulatory Peptides, 80, 1999, p. 127 the entire disclosure of which is incorporated herein by reference). The formation of cAMP is induced by forskolin, an adenylate cyclase activator.
Also, they inhibit in a concentration-dependent manner luciferase formation due to the binding to the ORL1 receptor. The potency, expressed as the IC50 value, indicates the concentration at which the semi-maximum effect of the agonist is reached.
(§2) The reporter gene system was constructed as follows:
A cDNA coding for the ORL1 receptor was cloned using standard methods from THP-1 cells (European Cell Culture Collection, Porton Down, Great Britain) of a human monocyte cell line and integrated into the plasmid pZeoSV (Invitrogen, Leek, Netherlands). This plasmid, pZeoORL17, was used for the transfection of a cell line, CHO-K1/pSE66/K9, that contains the cAMP reporter plasmid pSE66. […]

ORL1 receptor [3] = target: T1, ORL1 receptor; experiment: ORL1 reporter gene assay, antagonist test (cAMP-sensitive luciferase, forskolin-induced, in presence of 10 nM nociceptin/orphanin FQ); assay type: cell-based; parameters: A cDNA coding for the ORL1 receptor was cloned using standard methods from THP-1 cells; expressed in transfected cells; host or cells: CHO-K1/pSE66/K9/pZeoORL17/K21
From the text: as §1
The inhibition of luciferase formation due to the agonists is lifted to the extent that the antagonist binds to the ORL1 receptor. […] The effect of the antagonists is described by the pKB value.
as §2
A cDNA coding for the ORL1 receptor was cloned using standard methods from THP-1 cells (European Cell Culture Collection, Porton Down, Great Britain) of a human monocyte cell line and integrated into the plasmid pZeoSV (Invitrogen, Leek, Netherlands). This plasmid, pZeoORL17, was used for the transfection of a cell line, CHO-K1/pSE66/K9, that contains the cAMP reporter plasmid pSE66. The plasmid pSE66 was constructed on the basis of the plasmid pMAMneo-LUC (Clontech, Palo Alto, Calif.) by replacing the RSV promoter of this plasmid by a promoter region in which six CRE elements (cAMP-responsive elements, Comb et al., Nature, 323, 1986, pp. 353-356; Montminy et al., Proc. Natl. Acad. Sci. USA, 83, 1986, pp. 6682-6686; Short et al., J. Biol. Chem., 261, 1986, pp. 9721-9726) lie upstream of a promoter. The SV40 promoter derives from the plasmid pGL2-promoter (Promega, Madison, Wis.). The promoter region constructed in this way controls in the plasmid pSE66 the expression of the luciferase gene from pMAMneo-LUC. Furthermore, pSE66 carries a G418 resistance gene under the control of a further SV40 promoter. The cell line CHO-K1 (European Cell Culture Collection, Porton Down, Great Britain) was rendered stable with pSE66 and the clone CHO-K1/pSE66/K9 was selected for the transfection with pZeoORL17. […]

[4] = 0.5 nM 3H-N/OFQ, CHO-ORL1 membranes, WGA-SPA beads, one hour at room temperature, read-out: Ki (nM) ORL1 Binding Assay
[5] = read-out: PKB ORL1 Reporter Gene Assay (converted)

T1 sequence (P41146 whole entry): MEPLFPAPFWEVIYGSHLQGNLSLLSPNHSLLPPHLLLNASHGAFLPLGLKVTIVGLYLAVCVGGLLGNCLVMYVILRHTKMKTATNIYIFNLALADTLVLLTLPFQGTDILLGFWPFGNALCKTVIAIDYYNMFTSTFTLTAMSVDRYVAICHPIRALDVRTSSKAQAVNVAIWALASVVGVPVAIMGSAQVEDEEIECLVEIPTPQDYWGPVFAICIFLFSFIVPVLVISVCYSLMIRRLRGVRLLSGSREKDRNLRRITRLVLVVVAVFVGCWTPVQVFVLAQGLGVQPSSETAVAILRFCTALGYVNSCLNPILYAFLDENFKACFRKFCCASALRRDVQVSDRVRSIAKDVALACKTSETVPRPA

| Molecule | Ki (ORL1 receptor [1]; [4]) [nM] | IC50 (ORL1 receptor [2]) [nM] | Ki (ORL1 receptor [1]) [nM] | Kb (ORL1 receptor [3]) [nM] | Kb (ORL1 receptor [3]; [5]) [nM] |
| --- | --- | --- | --- | --- | --- |
| 17-cyclopropylmethyl-6,7-didehydro-4,5α-epoxy-3-hydroxy-14-(methoxynaphthalene)1′-(β-methylnaphthalene)indolo-[6,7:2,′3′]-morphinan hydrochloride [Example 4] | 982 | 31.2 |  |  |  |
| 17-cyclopropylmethyl-6,7-didehydro-4,5α-epoxy-14-hydroxy-3-benzyloxy-1′-(p-methoxycarbonylmethylphenyl)-indolo-[6,7:2,′3′]-morphinan hydrochloride [Example 5] |  | 25.8 |  |  |  |
| C=CCN1CCC23c4c5ccc(O)c4OC2c2c(c4ccccc4n2Cc2ccccc2Cl)CC3(O)C1C5 (stereo not drawn) [Example 1, 17-allyl-6,7-didehydro-4,5α-epoxy-3,14-dihydroxy-1′-(o-chlorobenzyl)indolo-[6,7:2,′3′]-morphinan hydrochloride] |  |  | 449 | 42.7 |  |
| C=CCN1CCC23c4c5ccc(O)c4OC2c2c(c4ccccc4n2Cc2cccc(Cl)c2)CC3(OCc2cccc(Cl)c2)C1C5 (stereo not drawn) [Example 2, 17-allyl-6,7-didehydro-4,5α-epoxy-3-hydroxy-14-(m-chloromethoxyphenyl)1′-(m-chlorobenzyl)indolo[6,7:2,′3′]-morphinan hydrochloride] | 1080 |  |  |  | 102 |
| Oc1ccc2c3c1OC1c4c(c5ccccc5n4Cc4ccccc4Cl)CC4(OCc5ccccc5Cl)C(C2)N(CC2CC2)CCC314 (stereo not drawn) [Example 3, 17-cyclopropylmethyl-6,7-didehydro-4,5α-epoxy-3-hydroxy-14-(o-chloromethoxyphenyl)1′-(o-chlorobenzyl)-indolo[6,7:2,′3′]-morphinan hydrochloride] | 718 |  |  |  | 407 |
